Experiment: Bioavailability enhancement: drug, nutraceutical or herbal product given alone or with bioenhancer (BE) to fasted rats, blood (plasma) levels 0-24 hrs by HPLC
Method: • 1. Bioenhancers (BEs) from Cuminum cyminum means either the aqueous, or 50% alcoholic extract or fractions No. 1 to 5. • 2. Piperine as Bioenhancer (BE) from Piper species means the molecule with characteristics as described in Example 2 of this invention. • 3.
• (i) Bioenhancer (BE) from Cuminum cyminum • Extract: 16 mg/kg body weight (Rats) • Fraction No. 1: 02–5 mg/kg body weight (rats) • Fraction No.2: 13-mg/kg body weight (Rats) • Fraction No. 3: 8 mg/kg body weight (Rats) • Fraction No. 4: 5 mg/kg body weight (Rats) • Fraction No. 5: 2.5 to 5 mg/kg body weight (Rats) • (ii) Piperine: 8 mg/kg body weight (Rats) As an example of an experiment in Rat (fasted): • Drug: Rifampicin, 40 mg/kg • BE (Cuminum cyminum): Doses as in Example No. 5 above. • BE (Cuminum cyminum)+Piperine: Doses as in Example No. 5 above.
Experimental procedure: Drug alone/or in combination with BE was administered to rats as per the following design: • Group 1: Control • Group 2: Rifampicin alone • Group 3: BE alone • Group 4: Rifampicin+BE (Cuminum cyminum) • Group 5: Rifampicin+BE (C. cyminum+piperine)
Blood from control/treated animals at predetermined intervals (0–24 hrs) (Total 14 timings). Rifampicin was extracted from the blood (plasma) using dichloromethane. The concentration of rifampicin in the samples was determined using HPLC (Model: Shimadzu 1080 BP); PDA detector; Mobile phase: phosphate buffer: acetonitile (40:60); Flow rate 1.0 ml/min. Column RP 18.
Control and BE only groups were employed to study the interference of plasma component and the bioenhancer used.
List of drugs, nutraceuticals, herbal formulations cited below as some of the example for the purpose of present invention.

## CCc1cc(C(N)=S)ccn1 [Ethionamide]
rat, in vivo
  % Enhancement in bioavailability, Piperine + Active molecule: 65%

## C=CC1=C(C(=O)O)N2C(=O)[C@@H](NC(=O)/C(=N\OCC(=O)O)c3csc(N)n3)[C@H]2SC1 [Cefixime]
rat, in vivo
  % Enhancement in bioavailability, Piperine + BE from Cuminum cyminum: Nil

## O=C(O)Cc1ccccc1Nc1c(Cl)cccc1Cl [Diclofenac]
rat, in vivo
  % Enhancement in bioavailability, Piperine + Active molecule: 108%

## Nc1ccc(S(=O)(=O)c2ccc(N)cc2)cc1 [Dapsone]
rat, in vivo
  % Enhancement in bioavailability, Piperine + Active molecule: 75%

## CC1COc2c(N3CCN(C)CC3)c(F)cc3c(=O)c(C(=O)O)cn1c23 (stereo not shown) [O-floxacin, Ofloxacin]
rat, in vivo
  % Enhancement in bioavailability, Piperine + Active molecule: 73%

## O=C(CCCN1CCC(O)(c2ccc(Cl)cc2)CC1)c1ccc(F)cc1 [Haloperidol]
rat, in vivo
  % Enhancement in bioavailability, Piperine + Active molecule: Nil

## NC(=O)c1cnccn1 [Pyrazinamide]
rat, in vivo
  % Enhancement in bioavailability, Piperine + Active molecule: Nil

## NNC(=O)c1ccncc1 [Isoniazid]
rat, in vivo
  % Enhancement in bioavailability, Piperine + Active molecule: Negligible

## COc1c(C)c2c(c(O)c1C/C=C(\C)CCC(=O)OCCN1CCOCC1)C(=O)OC2 [Mycophenolate Mofeit, Mycophenolate mofetil]
rat, in vivo
  % Enhancement in bioavailability, Piperine + Active molecule: Nil

## C=CC[C@@H]1/C=C(\C)C[C@H](C)C[C@H](OC)[C@H]2O[C@@](O)(C(=O)C(=O)N3CCCC[C@H]3C(=O)O[C@H](/C(C)=C/[C@@H]3CC[C@@H](O)[C@H](OC)C3)[C@H](C)[C@@H](O)CC1=O)[C@H](C)C[C@@H]2OC [Tacrolimus]
rat, in vivo
  % Enhancement in bioavailability, Piperine + Active molecule: 117%

## CC(=O)N1CCN(c2ccc(OCC3COC(Cn4ccnc4)(c4ccc(Cl)cc4Cl)O3)cc2)CC1 (stereo not shown) [Ketoconazole]
rat, in vivo
  % Enhancement in bioavailability, Piperine + Active molecule: 156%

## Cc1nnc2n1-c1ccc(Cl)cc1C(c1ccccc1)=NC2 [Alprazolam]
Drug + BE from Cuminum cyminum (extract 16 mg/kg or fraction, rats) vs drug alone
  % Enhancement in bioavailability, BE from Cuminum cyminum: 60%
Drug + piperine (8 mg/kg, rats) vs drug alone
  % Enhancement in bioavailability, Piperine as BE: 98%
Drug + piperine + active molecule (rats) vs drug alone
  % Enhancement in bioavailability, Piperine + Active molecule: 104%

## COc1ccc2[nH]c([S+]([O-])Cc3ncc(C)c(OC)c3C)nc2c1 (stereo not shown) [Omeprazole]
rat, in vivo
  % Enhancement in bioavailability, Piperine + BE from Cuminum cyminum: Nil

## CS(=O)(=O)c1ccc(C2=C(c3ccccc3)C(=O)OC2)cc1 [Rofecoxib]
rat, in vivo
  % Enhancement in bioavailability, Piperine + Active molecule: Negligible

## CN/C(=N/CCSCc1nc[nH]c1C)NC#N [Cimetidine]
rat, in vivo
  % Enhancement in bioavailability, Piperine + BE from Cuminum cyminum: 105%

## CS(=O)(=O)Nc1ccc([N+](=O)[O-])cc1Oc1ccccc1 [Nimesulide]
rat, in vivo
  % Enhancement in bioavailability, Piperine + Active molecule: 150%

## O=c1[nH]cc(F)c(=O)[nH]1 [5-Fluorouracil]
rat, in vivo
  % Enhancement in bioavailability, Piperine + Active molecule: 435%

## Cc1cn([C@H]2C[C@H](N=[N+]=[N-])[C@@H](CO)O2)c(=O)[nH]c1=O [Zidovudine]
rat, in vivo
  % Enhancement in bioavailability, Piperine + Active molecule: 415%

## CC[C@H]1OC(=O)[C@H](C)[C@@H](O[C@H]2C[C@@](C)(OC)[C@@H](O)[C@H](C)O2)[C@H](C)[C@@H](O[C@@H]2O[C@H](C)C[C@H](N(C)C)[C@H]2O)[C@](C)(O)C[C@@H](C)C(=O)[C@H](C)[C@@H](O)[C@]1(C)O [Erythromycin]
rat, in vivo
  % Enhancement in bioavailability, Piperine + Active molecule: 95%

## NCCCC[C@H](N[C@@H](CCc1ccccc1)C(=O)O)C(=O)N1CCC[C@H]1C(=O)O [Lisinopril]
rat, in vivo
  % Enhancement in bioavailability, Piperine + Active molecule: 98%

## CC[C@H]1OC(=O)[C@H](C)[C@@H](O[C@H]2C[C@@](C)(OC)[C@@H](O)[C@H](C)O2)[C@H](C)[C@@H](O[C@@H]2O[C@H](C)C[C@H](N(C)C)[C@H]2O)[C@](C)(O)C[C@@H](C)CN(C)[C@H](C)[C@@H](O)[C@]1(C)O [Azithromycin]
rat, in vivo
  % Enhancement in bioavailability, Piperine + Active molecule: 97%

## N[C@@H]1CON=C1O [Cycloserine]
rat, in vivo
  % Enhancement in bioavailability, Piperine + Active molecule: 90%

## CC[C@H]1OC(=O)[C@H](C)[C@@H](O[C@H]2C[C@@](C)(OC)[C@@H](O)[C@H](C)O2)[C@H](C)[C@@H](O[C@@H]2O[C@H](C)C[C@H](N(C)C)[C@H]2O)[C@](C)(O)C[C@@H](C)/C(=N\OCOCCOC)[C@H](C)[C@@H](O)[C@]1(C)O [Roxythromycin]
rat, in vivo
  % Enhancement in bioavailability, Piperine + Active molecule: 103%

## CC1=C(C(=O)O)N2C(=O)[C@@H](NC(=O)[C@H](N)c3ccc(O)cc3)[C@H]2SC1 [Cefadroxil]
rat, in vivo
  % Enhancement in bioavailability, Piperine + BE from Cuminum cyminum: 79%

## CNC(=C[N+](=O)[O-])NCCSCc1ccc(CN(C)C)o1 [Ranitidine]
rat, in vivo
  % Enhancement in bioavailability, Piperine + BE from Cuminum cyminum: 89%

## CN(Cc1cnc2nc(N)nc(N)c2n1)c1ccc(C(=O)N[C@@H](CCC(=O)O)C(=O)O)cc1 [Methotrexate]
rat, in vivo
  % Enhancement in bioavailability, Piperine + Active molecule: 30%

## CCOC(=O)C1=C(COCCN)NC(C)=C(C(=O)OC)C1c1ccccc1Cl (stereo not shown) [Amlodipine]
rat, in vivo
  % Enhancement in bioavailability, Piperine + Active molecule: 103%

## Cn1c(=O)c2[nH]cnc2n(C)c1=O [Theophylline]
rat, in vivo
  % Enhancement in bioavailability, Piperine + Active molecule: 75%

## CC(C)NCC(O)COc1cccc2ccccc12 (stereo not shown) [Propranolol]
rat, in vivo
  % Enhancement in bioavailability, Piperine + Active molecule: 210%

## CN1C(C(=O)Nc2ccccn2)=C(O)c2ccccc2S1(=O)=O [Piroxicam]
rat, in vivo
  % Enhancement in bioavailability, Piperine + Active molecule: 107%

## CCn1cc(C(=O)O)c(=O)c2cc(F)c(N3CCNCC3)cc21 [Norfloxacin]
rat, in vivo
  % Enhancement in bioavailability, Piperine + Active molecule: Negligible

## Cc1onc(-c2ccccc2Cl)c1C(=O)N[C@@H]1C(=O)N2[C@@H]1SC(C)(C)[C@@H]2C(=O)O [Cloxacillin]
rat, in vivo
  % Enhancement in bioavailability, Piperine + Active molecule: 95%

## CO/N=C(\C(=O)N[C@@H]1C(=O)N2C(C(=O)O)=C(CSc3nc(=O)c(O)nn3C)CS[C@H]12)c1csc(N)n1 [Cefatrioxone]
rat, in vivo
  % Enhancement in bioavailability, Piperine + BE from Cuminum cyminum: Nil

## COc1cccc2c1C(=O)c1c(O)c3c(c(O)c1C2=O)C[C@@](O)(C(=O)CO)C[C@@H]3O[C@H]1C[C@H](N)[C@H](O)[C@H](C)O1 [Doxorubicin]
rat, in vivo
  % Enhancement in bioavailability, Piperine + Active molecule: 103%

## CC[C@@H](CO)NCCN[C@@H](CC)CO [Ethambutol]
rat, in vivo
  % Enhancement in bioavailability, Piperine + Active molecule: Nil

## CN(Cc1cc(Br)cc(Br)c1N)C1CCCCC1 [Bromhexine]
rat, in vivo
  % Enhancement in bioavailability, Piperine + Active molecule: 90%

## CC1(C)S[C@@H]2[C@H](NC(=O)[C@H](N)c3ccc(O)cc3)C(=O)N2[C@H]1C(=O)O [Amoxycillin]
rat, in vivo
  % Enhancement in bioavailability, Piperine + Active molecule: 98%

## NCC[C@H](O)C(=O)N[C@@H]1C[C@H](N)[C@@H](O[C@H]2O[C@H](CN)[C@@H](O)[C@H](O)[C@H]2O)[C@H](O)[C@H]1O[C@H]1O[C@H](CO)[C@@H](O)[C@H](N)[C@H]1O [Amikacin]
rat, in vivo
  % Enhancement in bioavailability, Piperine + Active molecule: Nil

## Nc1nc2c(ncn2COCCO)c(=O)[nH]1 [Acyclovir]
rat, in vivo
  % Enhancement in bioavailability, Piperine + Active molecule: 98%

## CC(C)(C)NCC(O)c1ccc(O)c(CO)c1 (stereo not shown) [Salbutamol]
rat, in vivo
  % Enhancement in bioavailability, Piperine + Active molecule: 85%

## CO[C@H]1/C=C/O[C@@]2(C)Oc3c(C)c(O)c4c(O)c(c(/C=N/N5CCN(C)CC5)c(O)c4c3C2=O)NC(=O)/C(C)=C\C=C\[C@H](C)[C@H](O)[C@@H](C)[C@@H](O)[C@@H](C)[C@H](OC(C)=O)[C@@H]1C [Rifampicin]
rat, in vivo
  % Enhancement in bioavailability, Piperine + Active molecule: 366%

From patent US7070814B2, “Bioavailability / bioefficacy enhancing activity of Cuminum cyminum and extracts and fractions thereof” (Council of Scientific and Industrial Research, priority 2002, dated 2006)
